The text below walks through data of ChEMBL document CHEMBL1909046, “DrugMatrix in vitro pharmacology data”.

In test [1] the target is T1, C-C chemokine receptor type 4 (Homo sapiens, UniProt P51679). Further: in other assays of this panel Not Active means under 50% inhibition at 10 µM.
T1 sequence (P51679 whole entry): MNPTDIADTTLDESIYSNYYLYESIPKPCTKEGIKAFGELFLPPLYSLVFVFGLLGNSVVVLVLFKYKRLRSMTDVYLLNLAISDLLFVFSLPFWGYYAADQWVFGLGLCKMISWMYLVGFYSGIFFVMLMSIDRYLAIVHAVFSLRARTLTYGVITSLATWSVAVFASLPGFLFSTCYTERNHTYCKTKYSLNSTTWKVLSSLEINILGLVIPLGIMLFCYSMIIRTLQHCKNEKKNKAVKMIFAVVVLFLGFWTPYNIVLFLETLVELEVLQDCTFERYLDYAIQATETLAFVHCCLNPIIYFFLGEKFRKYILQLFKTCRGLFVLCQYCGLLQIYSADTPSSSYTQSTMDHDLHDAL
The format is cell membranes, Membrane. As to conditions: chem-1.

Test [2] deals with T2, Cysteinyl leukotriene receptor 1 (Homo sapiens, UniProt Q9Y271).
T2 sequence (Q9Y271 whole entry): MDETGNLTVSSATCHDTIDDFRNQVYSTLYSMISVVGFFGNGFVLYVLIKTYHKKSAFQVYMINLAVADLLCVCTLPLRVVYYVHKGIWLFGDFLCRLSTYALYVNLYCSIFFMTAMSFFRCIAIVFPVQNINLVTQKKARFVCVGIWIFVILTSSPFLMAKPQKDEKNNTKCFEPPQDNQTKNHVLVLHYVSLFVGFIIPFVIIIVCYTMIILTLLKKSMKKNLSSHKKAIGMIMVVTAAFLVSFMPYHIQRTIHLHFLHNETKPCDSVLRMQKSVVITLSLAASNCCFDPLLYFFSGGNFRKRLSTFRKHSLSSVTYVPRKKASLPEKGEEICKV
The format is cell membranes, Membrane. As to conditions: cho-k1.

The target of test [3] is Platelet-activating factor receptor (Homo sapiens, UniProt P25105). In words: biochemical. Format: tissue-based. As to conditions: platelet. Further: in other assays of this panel Not Active means under 50% inhibition at 10 µM.
Chain of Platelet-activating factor receptor (P25105 whole entry): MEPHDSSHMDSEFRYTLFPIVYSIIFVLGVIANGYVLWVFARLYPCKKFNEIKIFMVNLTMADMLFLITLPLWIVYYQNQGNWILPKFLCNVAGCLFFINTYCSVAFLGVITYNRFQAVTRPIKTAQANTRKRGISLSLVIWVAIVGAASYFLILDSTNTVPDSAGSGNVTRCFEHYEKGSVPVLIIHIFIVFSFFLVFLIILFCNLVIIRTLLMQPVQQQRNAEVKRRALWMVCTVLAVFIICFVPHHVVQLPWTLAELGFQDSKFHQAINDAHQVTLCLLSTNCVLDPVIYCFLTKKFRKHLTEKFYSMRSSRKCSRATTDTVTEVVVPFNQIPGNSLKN
For test [4], the target named is T3, Angiotensin-converting enzyme (Oryctolagus cuniculus, UniProt P12822).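 Further: enzymatic inhibition of angiotensin-converting enzyme measured with FAPGG as the substrate; in other assays of this panel Not Active means under 50% inhibition at 10 µM.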
T3 sequence (P12822 whole entry): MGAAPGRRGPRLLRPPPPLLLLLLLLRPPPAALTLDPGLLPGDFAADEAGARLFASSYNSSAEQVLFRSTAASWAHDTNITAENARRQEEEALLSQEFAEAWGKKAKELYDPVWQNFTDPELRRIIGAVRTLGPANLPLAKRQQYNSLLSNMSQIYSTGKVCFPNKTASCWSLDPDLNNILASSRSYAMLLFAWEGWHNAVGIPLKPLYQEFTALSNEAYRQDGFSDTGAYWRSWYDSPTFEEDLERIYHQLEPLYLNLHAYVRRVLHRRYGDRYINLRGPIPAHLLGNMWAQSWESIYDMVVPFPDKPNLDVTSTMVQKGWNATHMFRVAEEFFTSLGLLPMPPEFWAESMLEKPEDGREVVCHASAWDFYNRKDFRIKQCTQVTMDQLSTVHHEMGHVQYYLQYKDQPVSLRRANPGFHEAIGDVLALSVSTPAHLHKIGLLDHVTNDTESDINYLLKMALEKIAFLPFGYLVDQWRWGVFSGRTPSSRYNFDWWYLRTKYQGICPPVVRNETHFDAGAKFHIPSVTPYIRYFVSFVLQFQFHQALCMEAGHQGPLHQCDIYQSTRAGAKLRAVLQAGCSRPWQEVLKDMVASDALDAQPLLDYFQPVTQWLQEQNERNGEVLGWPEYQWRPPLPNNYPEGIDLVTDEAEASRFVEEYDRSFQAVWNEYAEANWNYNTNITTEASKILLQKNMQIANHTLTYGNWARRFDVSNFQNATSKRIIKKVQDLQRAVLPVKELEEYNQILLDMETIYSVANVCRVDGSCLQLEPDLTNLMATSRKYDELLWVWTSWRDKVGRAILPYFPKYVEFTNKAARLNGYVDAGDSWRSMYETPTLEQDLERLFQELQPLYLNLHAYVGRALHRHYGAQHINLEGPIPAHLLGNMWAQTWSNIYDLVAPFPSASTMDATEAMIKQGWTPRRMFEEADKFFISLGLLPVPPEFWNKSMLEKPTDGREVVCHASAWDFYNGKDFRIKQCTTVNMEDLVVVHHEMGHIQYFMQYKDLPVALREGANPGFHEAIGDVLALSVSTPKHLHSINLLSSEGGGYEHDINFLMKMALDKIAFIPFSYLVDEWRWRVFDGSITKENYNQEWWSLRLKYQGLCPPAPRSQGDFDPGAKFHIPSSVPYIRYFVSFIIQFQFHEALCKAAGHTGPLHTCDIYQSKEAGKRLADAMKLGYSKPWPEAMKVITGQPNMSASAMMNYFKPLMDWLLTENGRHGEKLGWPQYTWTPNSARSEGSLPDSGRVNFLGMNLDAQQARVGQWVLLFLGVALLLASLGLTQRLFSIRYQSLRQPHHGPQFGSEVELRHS
Format: tissue-based, Lung.

The target in test [5] is Matrix metalloproteinase-9 (Homo sapiens, UniProt P14780). In words: biochemical. Format: cell-based.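 Further: inhibition of isolated MMP-9 enzyme activity toward a synthetic peptide substrate, from the DrugMatrix protease screening panel; in other assays of this panel Not Active means under 50% inhibition at 10 µM.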
Chain of Matrix metalloproteinase-9 (P14780 whole entry): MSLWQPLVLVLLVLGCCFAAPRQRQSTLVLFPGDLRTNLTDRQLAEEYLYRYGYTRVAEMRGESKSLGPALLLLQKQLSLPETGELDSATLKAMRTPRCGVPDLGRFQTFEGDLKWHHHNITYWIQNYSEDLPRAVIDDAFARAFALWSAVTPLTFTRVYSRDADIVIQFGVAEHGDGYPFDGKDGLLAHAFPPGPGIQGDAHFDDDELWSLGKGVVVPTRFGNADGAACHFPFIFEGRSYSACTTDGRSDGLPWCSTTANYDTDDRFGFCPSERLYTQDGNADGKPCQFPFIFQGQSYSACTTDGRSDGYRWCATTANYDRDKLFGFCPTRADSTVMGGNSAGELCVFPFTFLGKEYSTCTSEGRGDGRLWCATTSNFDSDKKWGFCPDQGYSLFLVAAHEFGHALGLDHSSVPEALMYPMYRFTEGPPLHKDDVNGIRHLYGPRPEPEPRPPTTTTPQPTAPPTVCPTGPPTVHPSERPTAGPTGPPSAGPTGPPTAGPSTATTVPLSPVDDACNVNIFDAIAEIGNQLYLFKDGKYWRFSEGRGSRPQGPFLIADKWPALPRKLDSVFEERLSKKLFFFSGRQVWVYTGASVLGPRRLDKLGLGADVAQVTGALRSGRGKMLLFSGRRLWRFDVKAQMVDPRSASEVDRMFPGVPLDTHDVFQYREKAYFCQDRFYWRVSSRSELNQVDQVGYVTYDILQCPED
Test [6] has as its target Mitogen-activated protein kinase 1 (Homo sapiens, UniProt P28482). As to the kind of experiment: DRUGMATRIX: Protein Serine/Threonine Kinase, ERK2 enzyme inhibition (substrate: Myelin Basic Protein). Also noted: species or system Escherichia coli. As to conditions: Not Active = under 50% inhibition at 10 µM.
A further test concerns the target T4, Adenosine receptor A1 (Homo sapiens, UniProt P30542).
T4 sequence (P30542 whole entry): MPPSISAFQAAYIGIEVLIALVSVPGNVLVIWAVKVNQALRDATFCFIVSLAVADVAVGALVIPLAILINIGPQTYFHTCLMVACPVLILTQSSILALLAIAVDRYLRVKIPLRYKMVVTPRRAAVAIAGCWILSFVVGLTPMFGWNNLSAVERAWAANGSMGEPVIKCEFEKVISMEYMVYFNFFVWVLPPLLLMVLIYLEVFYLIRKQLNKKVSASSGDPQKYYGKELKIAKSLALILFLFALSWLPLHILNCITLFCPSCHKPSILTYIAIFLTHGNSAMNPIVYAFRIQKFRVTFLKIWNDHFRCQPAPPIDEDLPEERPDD
Format: cell membranes, CHO, Membrane.

Chain of Mitogen-activated protein kinase 1 (P28482 whole entry): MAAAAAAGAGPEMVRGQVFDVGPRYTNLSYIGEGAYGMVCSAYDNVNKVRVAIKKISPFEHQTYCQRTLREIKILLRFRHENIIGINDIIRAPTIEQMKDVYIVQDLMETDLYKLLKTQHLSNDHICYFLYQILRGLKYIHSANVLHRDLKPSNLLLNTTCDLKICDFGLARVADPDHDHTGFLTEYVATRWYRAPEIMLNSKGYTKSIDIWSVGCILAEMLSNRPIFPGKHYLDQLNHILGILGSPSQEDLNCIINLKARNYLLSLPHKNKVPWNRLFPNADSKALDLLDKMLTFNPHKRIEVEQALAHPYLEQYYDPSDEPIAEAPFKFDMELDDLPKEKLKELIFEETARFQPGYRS

As for `CCOC(=O)C1=C(C)NC(C)=C(C(=O)OC)C1c1cccc(Cl)c1Cl` (stereo not drawn) [FELODIPINE], the 50% inhibitory concentration (IC50) entry in test [1], in test [2], in test [3], in test [4], in test [5] and in test [6] was “Not Active” each time. Besides, the IC50 result against Adenosine receptor A1 (cho) is reported as “Not Active”.

As for `CC(C(=O)O)c1ccc(-c2ccccc2)c(F)c1` (stereo not drawn) [FLURBIPROFEN], the IC50 entry in test [1], in test [2], in test [3], in test [4], in test [5] and in test [6] was “Not Active” in each case. In addition, at Adenosine receptor A1 (cho), the IC50 entry was “Not Active”.

Consider `Cc1cn[nH]c1` [FOMEPIZOLE], for which the 50% inhibitory concentration (IC50) result in test [1], in test [2], in test [3], in test [4], in test [5] and in test [6] was “Not Active” each time. At Adenosine receptor A1 (cho), the IC50 result is “Not Active”.

For the molecule `NC[C@@H]1O[C@H](O[C@H]2[C@@H](O)[C@H](O[C@@H]3[C@@H](O)[C@H](N)C[C@H](N)[C@H]3O[C@H]3O[C@H](CN)[C@@H](O)[C@H](O)[C@H]3N)O[C@@H]2CO)[C@H](N)[C@@H](O)[C@@H]1O` [FRAMYCETIN], the concentration for half-maximal inhibition (IC50) entry in test [1], in test [2], in test [3], in test [4], in test [5] and in test [6] was “Not Active” each time. Moreover, on Adenosine receptor A1 (cho), the IC50 result is on record as “Not Active”.

On to `C[C@H]([C@](O)(Cn1cncn1)c1ccc(F)cc1F)S(C)(=O)=O` [GENACONAZOLE], for which the IC50 entry in test [1], in test [2], in test [3], in test [4], in test [5] and in test [6] was “Not Active” in each case. Moreover, at Adenosine receptor A1 (cho), the IC50 entry is given as “Not Active”.

Regarding `Cc1c(F)c(N2CCNC(C)C2)cc2c1c(=O)c(C(=O)O)cn2C1CC1` (stereo not drawn) [GREPAFLOXACIN], the 50% inhibitory concentration (IC50) result in test [1], in test [2], in test [3], in test [4], in test [5] and in test [6] was “Not Active” each time. Besides, on Adenosine receptor A1 (cho), the IC50 entry was “Not Active”.

Take `COc1ccccc1OCC(O)CO` (stereo not drawn) [GUAIFENESIN]: the half-maximal inhibitory concentration (IC50) result in test [1], in test [2], in test [3], in test [4], in test [5] and in test [6] was “Not Active” in each case. Besides, at Adenosine receptor A1 (cho), the 50% inhibitory concentration (IC50) entry is “Not Active”.

For `N=C(N)N/N=C/c1c(Cl)cccc1Cl` [GUANABENZ], the IC50 result in test [1], in test [2], in test [3], in test [4], in test [5] and in test [6] was “Not Active” throughout. Also, at Adenosine receptor A1 (cho), the IC50 result is “Not Active”.

Take `C[C@]12CCC(=O)C=C1CC[C@@H]1[C@@H]2[C@@H](O)C[C@@]2(C)[C@H]1CC[C@]2(O)C(=O)CO` [HYDROCORTISONE]: the IC50 entry in test [1], in test [2], in test [3], in test [4], in test [5] and in test [6] was “Not Active” throughout. Also, on Adenosine receptor A1 (cho), the IC50 result was “Not Active”.

Take `C/C=C\c1ccc(O)c(OC)c1` [ISOEUGENOL]: the half-maximal inhibitory concentration (IC50) entry in test [1], in test [2], in test [3], in test [4], in test [5] and in test [6] was “Not Active” in each case. Moreover, the half-maximal inhibitory concentration (IC50) entry on Adenosine receptor A1 (cho) is listed as “Not Active”.

`NC[C@H]1O[C@H](O[C@H]2[C@H](O)[C@@H](O[C@H]3O[C@H](CO)[C@@H](O)[C@H](N)[C@H]3O)[C@H](N)C[C@@H]2N)[C@H](O)[C@@H](O)[C@@H]1O` [KANAMYCIN]: the half-inhibitory concentration (IC50) result in test [1], in test [2], in test [3], in test [4], in test [5] and in test [6] was “Not Active” each time. Further, at Adenosine receptor A1 (cho), the IC50 result was “Not Active”.

For the molecule `CC[C@H](C)C(=O)O[C@H]1C[C@@H](C)C=C2C=C[C@H](C)[C@H](CC[C@@H]3C[C@@H](O)CC(=O)O3)[C@H]21` [LOVASTATIN], the IC50 entry in test [1], in test [2], in test [3], in test [4], in test [5] and in test [6] was “Not Active” each time. Further, the IC50 on Adenosine receptor A1 (read-out: IC50) stood at 26.7 µM. Moreover, the inhibition constant (Ki) at Adenosine receptor A1 (read-out: Ki) is 15.6 µM.

In the case of `CC(C(=O)O)c1ccc(CC2CCCC2=O)cc1` (stereo not drawn) [LOXOPROFEN], the 50% inhibitory concentration (IC50) result in test [1], in test [2], in test [3], in test [4], in test [5] and in test [6] was “Not Active” throughout. Also, the IC50 entry on Adenosine receptor A1 (cho) is on record as “Not Active”.

As to `Cc1cccc(Nc2ccccc2C(=O)O)c1C` [MEFENAMIC ACID], the half-inhibitory concentration (IC50) entry in test [1], in test [2], in test [3], in test [4], in test [5] and in test [6] was “Not Active” throughout. The IC50 entry against Adenosine receptor A1 (cho) was “Not Active”.

In the case of `CC(=O)O[C@]1(C(C)=O)CC[C@H]2[C@@H]3C=C(C)C4=CC(=O)CC[C@]4(C)[C@H]3CC[C@@]21C` [MEGESTROL ACETATE], the half-inhibitory concentration (IC50) result in test [1], in test [2], in test [3], in test [4], in test [5] and in test [6] was “Not Active” throughout. Also, the half-inhibitory concentration (IC50) result against Adenosine receptor A1 (cho) was “Not Active”.

As to `COc1ccccc1OCC(O)COC(N)=O` (stereo not drawn) [METHOCARBAMOL], the IC50 entry in test [1], in test [2], in test [3], in test [4], in test [5] and in test [6] was “Not Active” in each case. Further, the concentration for half-maximal inhibition (IC50) result against Adenosine receptor A1 (cho) is “Not Active”.
